Results from patent publication US5128338A, “Imidazo [1,2-c] quinazoline compounds” (priority 1990, dated 1992).
Like-named read-outs stand apart in the source and are kept apart here.

Assays:
[1] = test system: porcine coronary; assay: Porcine coronary relaxation (PGF2α-precontracted coronary segments); set-up: species or system pig (Yucatan mini pig); conditions: for EC20 / EC50: Sus scrofa; for EC20: read-out: DE20, effect on coronary tension induced by PGF2α; for EC50: read-out: DE50, effect on coronary tension induced by PGF2α; for level of relaxation obtained as well as the 50% effect value (K0.5) obtained by displacement: overall judgement of relaxation and K0.5
Procedure: All the products studied were dissolved in DMSO at a concentration of 10^-2 M, then diluted to the desired concentrations in the experimental media. All of the ED20, ED50 and K0.5 values were corrected for the values obtained with DMSO under the same conditions of dilution.
Coronaries were taken on the heart of pigs (Yucatan mini pig), anesthetized under stresnil and pentobarbital. Proximal segments of the coronary were placed in an organ tank filled with Ringer solution at 37° C. The segments were tightened progressively to a base tension of around 6 g and contracted by the addition of PGF2α at a concentration of 4.10^-6 M. The potential of the products of the present invention to relax the coronary artery were then tested.
All of the compounds were tested for their capacity to relax the porcine coronary precontracted by PGF2α.

[2] = target: T1, peripheral receptors for benzodiazepines ([^3 H]-PK 11195) (Rattus norvegicus, UniProt P16257); assay: Displacement of [3H]-PK 11195, rat heart microsomal fractions; format: binding; conditions: corrected for DMSO, read-out: K0.5, peripheral receptors, [^3 H]--PK 11195;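 also: radioligand binding with bound label split from free by vacuum filtration, then quantified through liquid scintillation counting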
T1 construct: on microsomal fractions from rat heart; from tissue; host or cells: rat heart, microsomal fractions

[3] = target: T2, peripheral receptors for benzodiazepines ([^3 H]-R05-4864) (Rattus norvegicus, UniProt P16257); assay: Displacement of [3H]-R05-4864, rat heart microsomal fractions; format: binding; conditions: corrected for DMSO, read-out: K0.5, peripheral receptors, [^3 H]--RO 54864;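 also: Read-out is filter-retained bound radioligand, separated from free ligand by vacuum filtration over GF/C and counted by liquid scintillation, with compounds first dissolved in DMSO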
T2 construct: on microsomal fractions from rat heart; from tissue; host or cells: rat heart, microsomal fractions

[4] = target: central receptors for benzodiazepines; assay: Displacement of [3H]-RO 151788, rat central nervous system microsomal fractions; format: binding; conditions: corrected for DMSO, read-out: K0.5, central receptors, [^3 H]--RO 151788
[5] = porcine coronary segments, 37° C., PGF2α 4.10^-6 M, corrected for DMSO
[6] = porcine coronary segments, PGF2α 4.10^-6 M

Row | SMILES | EC20 [1] | EC20 [1, 5] | EC50 [1, 5] | IC50 [2] | IC50 [3] | IC50 [4] | Effect on coronary tension induced by PGF2α (in words) [1, 6] | level of relaxation obtained as well as the 50% effect value (K0.5) obtained by displacement [1] | EC50 [1]
1 | CN1C(=O)CN=C(c2ccccc2)c2cc(Cl)ccc21 [Diazepam, diazepam, reference compound] | 16.4 µM | – | – | – | – | – | – | – | –
2 | OCCN(CCO)c1nc(N2CCCCC2)c2nc(N(CCO)CCO)nc(N3CCCCC3)c2n1 [Dipyridamole, dipyridamole, reference compound] | – | 1.61 µM | 0.446 µM | 0.3 µM | 0.2 µM | – | – | – | –
3 | CCOC(=O)COc1ccc2c(=O)cc(-c3ccccc3)oc2c1 [Efloxate, efloxate, reference compound] | – | 35.8 µM | 3.94 µM | 20 µM | 200 µM | – | – | – | –
4 | CCOC(=O)c1cn2c(=O)[nH]c3ccccc3c2n1 [Example 1, 2-Ethoxycarbonyl-5-oxo-5,6-dihydroimidazo[1,2-c]quinazoline] | – | – | – | > 100 µM | 61 µM | 1 µM | No effect | – | –
5 | CCOC(=O)c1cn2c(=O)n(CC(=O)N(CC)CC)c3ccccc3c2n1 [Example 2, 2-Ethoxycarbonyl-6-N,N-diethylaminocarbonylmethyl-5-oxo-5,6-dihydroimidazo[1,2-c]quinazoline] | – | – | – | 0.55 µM | – | – | – | – | –
6 | O=c1[nH]c2ccccc2c2nc(-c3ccccc3)cn12 [Example 3, 2-Phenyl-5-oxo-5,6-dihydroimidazo[1,2-c]quinazoline] | – | 35.4 µM | 7.48 µM | 4.5 µM | > 100 µM | – | – | – | –
7 | CCN(CC)C(=O)Cn1c(=O)n2cc(C(N)=O)nc2c2ccccc21 [Example 4, 2-Aminocarbonyl-6-N,N-diethylaminocarbonylmethyl-5-oxo-5,6-dihydroimidazo[1,2-c]quinazoline] | – | 57.4 µM | 9.66 µM | 8 µM | 6 µM | > 100 µM | – | – | –
8 | CCN(CC)C(=O)Cn1c(=O)n2c(CN(C)C)c(-c3ccccc3)nc2c2ccccc21 [Example 5, 2-Phenyl-3-dimethylaminomethyl-6-N,N-diethylaminocarbonylmethyl-5-oxo-5,6-dihydroimidazo[1,2-c]quinazoline] | – | 144 µM | 18.9 µM | 2.2 µM | 4.5 µM | – | – | – | –
9 | CCN(CC)C(=O)Cn1c(=O)n2cc(C(=O)c3ccccc3)nc2c2ccccc21 [Example 6, 2-Benzoyl-6-N,N-diethylaminocarbonylmethyl-5-oxo-5,6-dihydroimidazo[1,2-c]quinazoline] | – | – | – | 0.22 µM | 0.2 µM | – | – | – | –
10 | CCOC(=O)c1cn2c(=O)n(C)c3ccccc3c2n1 [Example 8, 2-ethoxycarbonyl-6-methyl-5-oxo-5,6-dihydroimidazo[1,2-c]quinazoline] | – | – | – | > 100 µM | 30 µM | – | No effect | – | –
11 | O=C(c1ccccc1)c1cn2c(=O)[nH]c3ccccc3c2n1 [Example 9, 2-benzoyl-5-oxo-5,6-dihydroimidazo[1,2-c]quinazoline] | – | – | – | 28 µM | 13 µM | – | No effect | – | –
12 | CCOC(=O)c1cn2c(=O)n(Cc3ccccc3)c3ccccc3c2n1 [Example 10, 2-ethoxycarbonyl-6-benzyl-5-oxo-5,6-dihydroimidazo[1,2-c]quinazoline] | – | 3.33 µM | 1.04 µM | ~100 µM | 8.8 µM | – | – | particularly favorable | –
13 | CCN(CC)C(=O)Cn1c(=O)n2cc(-c3ccccc3)nc2c2ccccc21 [Example 11, 2-phenyl-6-N,N-diethylaminocarbonylmethyl-5-oxo-5,6-dihydroimidazo[1,2-c]quinazoline] | – | 6.93 µM | 1.13 µM | – | – | > 100 µM | – | particularly favorable | –
14 | CN1CCN(C(=O)Cn2c(=O)n3cc(-c4ccccc4)nc3c3ccccc32)CC1 [Example 12, 2-phenyl-6-N-methylpiperazinocarbonylmethyl-5-oxo-5,6-dihydroimidazo[1,2-c]quinazoline] | – | 587 µM | 31.9 µM | 80 µM | 40 µM | – | – | – | –
15 | CCOC(=O)Cn1c(=O)n2cc(-c3ccccc3)nc2c2ccccc21 [Example 13, 2-phenyl-6-ethoxycarbonylmethyl-5-oxo-5,6-dihydroimidazo[1,2-c]quinazoline] | – | 84.2 µM | 7.15 µM | 100 µM | > 100 µM | > 100 µM | – | – | –
16 | CC(C)NC(=O)Cn1c(=O)n2cc(-c3ccccc3)nc2c2ccccc21 [Example 14, 2-phenyl-6-N-isopropylaminocarbonylmethyl-5-oxo-5,6-dihydroimidazo[1,2-c]quinazoline] | – | 386 µM | 13.8 µM | > 100 µM | > 100 µM | > 100 µM | – | – | –
17 | CCN(CC)C(=O)Cn1c(=O)n2cc(-c3ccc(Cl)cc3)nc2c2ccccc21 [Example 15, 2-(p-chlorophenyl)-6-N,N-diethylaminocarbonylmethyl-5-oxo-5,6-dihydroimidazo[1,2-c]quinazoline] | – | 45.4 µM | 6.12 µM | 1.5 µM | ~100 µM | > 100 µM | – | – | –
18 | O=C(Cn1c(=O)n2cc(-c3ccccc3)nc2c2ccccc21)N1CCOCC1 [Example 16, 2-phenyl-6-morpholinocarbonylmethyl-5-oxo-5,6-dihydroimidazo[1,2-c]quinazoline] | – | 12.3 µM | 3.49 µM | > 100 µM | > 100 µM | > 100 µM | – | – | –
19 | CCN(CC)C(=O)Cn1c(=O)n2cc(-c3ccc(OC)cc3)nc2c2ccccc21 [Example 17, 2-(p-methoxyphenyl)-6-N,N-diethylaminocarbonylmethyl-5-oxo-5,6-dihydroimidazo[1,2-c]quinazoline] | – | 2.22 µM | 0.45 µM | 0.14 µM | 0.12 µM | 100 µM | – | particularly favorable | –
20 | CCN(CC)C(=O)Cn1c(=O)n2cc(-c3ccc(C)cc3)nc2c2ccccc21 [Example 18, 2-(p-methylphenyl)-6-N,N-diethylaminocarbonylmethyl-5-oxo-5,6-dihydroimidazo[1,2-c]quinazoline] | – | 8.37 µM | 0.94 µM | 0.21 µM | 0.07 µM | 100 µM | – | – | –
21 | CCN(CC)C(=O)Cn1c(=O)n2c(C)c(-c3ccccc3)nc2c2ccccc21 [Example 20, 2-phenyl-3-methyl-6--N,N-diethylaminocarbonylmethyl-5-oxo-5,6-dihydroimidazo[1,2-c]quinazoline] | – | 3.46 µM | 0.87 µM | – | 0.0086 µM | – | – | – | –
22 | CCN(CC)C(=O)Cn1c(=O)n2cc(-c3ccc(OC)c(OC)c3)nc2c2ccccc21 [Example 23, 2-(3,4-dimethoxyphenyl)-6-N,N-diethylaminocarbonylmethyl-5-oxo-5,6-dihydroimidazo[1,2-c]quinazoline] | – | 0.74 µM | 0.18 µM | – | – | > 100 µM | – | – | –
23 | CCc1c(-c2ccccc2)nc2c3ccccc3n(CC(=O)N(CC)CC)c(=O)n12 [Example 25, 2-phenyl-3-ethyl-6-N,N-diethylaminocarbonylmethyl-5-oxo-5,6-dihydroimidazo[1,2-c]quinazoline] | – | > 100 µM | 370 µM | 0.032 µM | 0.05 µM | – | – | – | –
24 | CCCN(CCC)C(=O)Cn1c(=O)n2cc(-c3ccccc3)nc2c2ccccc21 [Example 28, 2-phenyl-6-N,N-dipropylaminocarbonylmethyl-5-oxo-5,6-dihydroimidazo[1,2-c]quinazoline] | – | > 100 µM | 196 µM | – | – | 100 µM | – | particularly favorable | –
25 | Cn1c(=O)n2cc(-c3ccccc3)nc2c2ccccc21 [Example 29, 2-phenyl-6-methyl--5-oxo-5,6-dihydroimidazo[1,2-c]quinazoline] | – | > 100 µM | > 100 µM | > 100 µM | > 100 µM | – | – | – | –
26 | CCN(CC)C(=O)Cn1c(=O)n2cc(-c3ccccc3Cl)nc2c2ccccc21 [Example 30, 2-(o-chlorophenyl)-6-N,N-diethylaminocarbonylmethyl-5-oxo-5,6-dihydroimidazo[1,2-c]quinazoline] | – | 73.9 µM | 10.4 µM | 0.28 µM | 0.034 µM | – | – | – | –
27 | CCN(CC)C(=O)Cn1c(=O)n2cc(-c3ccccc3)nc2c2c(Cl)cccc21 [Example 31, 2-phenyl-6-N,N-diethylaminocarbonylmethyl-10-chloro-5-oxo-5,6-dihydroimidazo[1,2-c]quinazoline] | – | – | – | 1.4 µM | 2.8 µM | 100 µM | – | – | –
28 | CN1C(=O)CN=C(c2ccc(Cl)cc2)c2cc(Cl)ccc21 [Example R05-4864, reference compound] | 9.38 µM | – | – | – | – | – | – | – | 1.48 µM
29 | CCC(C)N(C)C(=O)c1cc2ccccc2c(-c2ccccc2Cl)n1 (stereo not drawn) [PK 11195, reference compound] | 9.13 µM | – | – | – | – | – | – | – | 1.66 µM
